From patent US11059789B2, “Isoquinoline-steroid conjugates and uses thereof” (priority 2018, dated 2021) come the findings set out here.

In data set [1] the test system is RAW264.7 immortalized murine macrophages. As to the kind of experiment: TNFα secretion assay (LPS-induced, ELISA). In kind it is cell-based. Conditions: RAW264.7 cells, 4 hrs. As for the experimental part: The TNFα assay quantifies secreted TNFα from RAW264.7 immortalized murine macrophages as an indicator of inflammation. The cells were concurrently treated with LPS (as an inducer of inflammation) and a titration of test molecules or control compounds for 4 hrs. After the incubation period, the media was harvested and assayed via an ELISA assay. ODs of experimental samples are fit to those of a standard curve to extrapolate the TNFα concentration. IC50 values were calculated by fitting a curve to experimental values with the controls as the top and bottom limits of the curve. Selected compounds provided herein were subjected to this assay.
(In an ELISA, binding on a coated surface is turned into a signal by an enzyme label.)

In the next data set the target is ROCK2 (Homo sapiens (Human), UniProt O75116). As to the kind of experiment: Kinase assay ROCK2. In kind it is biochemical. The note with it: HCl salt. As for the experimental part: (§1) Inhibition of various kinases was assayed.
A further data set deals with ROCK1 (Homo sapiens (Human), UniProt Q13464). As to the kind of experiment: Kinase assay ROCK1. Format: biochemical. The note with it: HCl salt. As to the method: as §1
The target in the next data set is PKA (Homo sapiens, UniProt P17612). As to the kind of experiment: Kinase assay PKA. In kind it is biochemical. Conditions: HCl salt. As for the experimental part:
as §1

For a further data set, the target named is JAK1 (Homo sapiens (Human), UniProt P23458). In words: Kinase assay JAK1. Format: biochemical. Conditions: HCl salt. As to the method:
as §1

The target of a further data set is JAK2 (Homo sapiens (Human), UniProt O60674). As to the kind of experiment: Kinase assay JAK2. Format: biochemical. Conditions: HCl salt.
A further data set has as its target JAK3 (Homo sapiens (Human), UniProt P52333). As to the kind of experiment: Kinase assay JAK3. Conditions: HCl salt. In kind it is biochemical. As for the experimental part: as §1
The next data set deals with TYK2 (Homo sapiens (Human), UniProt P29597). As to the kind of experiment: Kinase assay TYK2. Conditions: HCl salt. Format: biochemical. As for the experimental part: as §1
In another data set the target is IKKb (Homo sapiens (Human), UniProt O14920). In words: Kinase assay IKKb. In kind it is biochemical. The note with it: HCl salt. As to the method: as §1
Another data set deals with PKCh (Homo sapiens (Human), UniProt P24723). As to the kind of experiment: Kinase assay PKCh. In kind it is biochemical. Conditions: HCl salt. As for the experimental part:
as §1

In a further data set the target is PKCd (Homo sapiens (Human), UniProt Q05655). As to the kind of experiment: Kinase assay PKCd. Format: biochemical. The note with it: HCl salt. As to the method:
as §1

The target of a further data set is PKCe (Homo sapiens (Human), UniProt Q02156). In words: Kinase assay PKCe. In kind it is biochemical. The note with it: HCl salt. As for the experimental part:
as §1

The next data set has as its target AKT1 (Homo sapiens (Human), UniProt P31749). As to the kind of experiment: Kinase assay AKT1. In kind it is biochemical. Conditions: HCl salt. As for the experimental part:
as §1

In another data set the test system is PTM. In words: PTM assay. In kind it is cell-based. Conditions: HCl salt. As for the experimental part: as §1
The subject of a further data set is HTM. In words: HTM assay. In kind it is cell-based. Conditions: HCl salt. As to the method:
as §1

A short description of a further data set: in vitro. In kind it is cell-based.
A further data set deals with NFkB. In words: NFkB assay. Format: cell-based. Conditions: HCl salt. As to the method:
as §1

pIC50: −log10 of the molar value. Where a name gives a salt, the structure may show the parent alone.

Chain of PKCh (P24723 whole entry): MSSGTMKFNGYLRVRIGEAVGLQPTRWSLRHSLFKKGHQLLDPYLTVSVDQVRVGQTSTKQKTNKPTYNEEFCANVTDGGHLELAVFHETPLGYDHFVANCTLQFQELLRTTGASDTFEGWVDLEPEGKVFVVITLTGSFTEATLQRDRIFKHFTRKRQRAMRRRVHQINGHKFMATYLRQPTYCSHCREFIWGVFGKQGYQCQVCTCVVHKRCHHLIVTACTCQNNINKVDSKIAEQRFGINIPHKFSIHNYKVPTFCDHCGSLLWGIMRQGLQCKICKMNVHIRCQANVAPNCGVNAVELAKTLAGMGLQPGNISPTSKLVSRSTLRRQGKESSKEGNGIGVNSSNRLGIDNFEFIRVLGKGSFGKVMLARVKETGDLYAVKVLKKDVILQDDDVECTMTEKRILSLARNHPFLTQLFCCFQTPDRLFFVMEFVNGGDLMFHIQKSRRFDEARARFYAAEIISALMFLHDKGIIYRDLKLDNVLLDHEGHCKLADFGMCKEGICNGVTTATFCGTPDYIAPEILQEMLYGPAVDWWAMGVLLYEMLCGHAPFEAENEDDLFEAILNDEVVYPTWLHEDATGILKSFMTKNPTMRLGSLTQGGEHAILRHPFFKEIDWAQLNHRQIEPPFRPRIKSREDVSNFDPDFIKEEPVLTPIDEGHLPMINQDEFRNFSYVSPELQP
Chain of PKCe (Q02156 whole entry, species assumed): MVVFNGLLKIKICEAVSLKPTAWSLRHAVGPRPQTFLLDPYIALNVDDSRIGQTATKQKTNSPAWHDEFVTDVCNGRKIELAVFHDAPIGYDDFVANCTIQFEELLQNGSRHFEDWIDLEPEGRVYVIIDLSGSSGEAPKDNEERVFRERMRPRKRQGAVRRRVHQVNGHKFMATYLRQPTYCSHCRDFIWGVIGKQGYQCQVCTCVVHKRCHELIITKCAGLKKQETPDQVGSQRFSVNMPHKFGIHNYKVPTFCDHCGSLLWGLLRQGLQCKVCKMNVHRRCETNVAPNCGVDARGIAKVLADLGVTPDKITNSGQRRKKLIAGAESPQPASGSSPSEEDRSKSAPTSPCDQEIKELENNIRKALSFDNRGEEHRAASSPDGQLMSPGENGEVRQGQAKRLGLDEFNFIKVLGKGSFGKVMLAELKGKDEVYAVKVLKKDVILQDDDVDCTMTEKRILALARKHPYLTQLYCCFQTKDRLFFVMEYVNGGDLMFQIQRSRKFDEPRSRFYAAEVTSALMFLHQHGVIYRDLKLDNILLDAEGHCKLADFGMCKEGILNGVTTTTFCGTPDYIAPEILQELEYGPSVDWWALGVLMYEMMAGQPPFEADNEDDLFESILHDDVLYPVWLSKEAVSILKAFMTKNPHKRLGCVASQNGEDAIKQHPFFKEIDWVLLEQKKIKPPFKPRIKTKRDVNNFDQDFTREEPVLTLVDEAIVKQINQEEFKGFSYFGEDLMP
Chain of PKCd (Q05655 whole entry, species assumed): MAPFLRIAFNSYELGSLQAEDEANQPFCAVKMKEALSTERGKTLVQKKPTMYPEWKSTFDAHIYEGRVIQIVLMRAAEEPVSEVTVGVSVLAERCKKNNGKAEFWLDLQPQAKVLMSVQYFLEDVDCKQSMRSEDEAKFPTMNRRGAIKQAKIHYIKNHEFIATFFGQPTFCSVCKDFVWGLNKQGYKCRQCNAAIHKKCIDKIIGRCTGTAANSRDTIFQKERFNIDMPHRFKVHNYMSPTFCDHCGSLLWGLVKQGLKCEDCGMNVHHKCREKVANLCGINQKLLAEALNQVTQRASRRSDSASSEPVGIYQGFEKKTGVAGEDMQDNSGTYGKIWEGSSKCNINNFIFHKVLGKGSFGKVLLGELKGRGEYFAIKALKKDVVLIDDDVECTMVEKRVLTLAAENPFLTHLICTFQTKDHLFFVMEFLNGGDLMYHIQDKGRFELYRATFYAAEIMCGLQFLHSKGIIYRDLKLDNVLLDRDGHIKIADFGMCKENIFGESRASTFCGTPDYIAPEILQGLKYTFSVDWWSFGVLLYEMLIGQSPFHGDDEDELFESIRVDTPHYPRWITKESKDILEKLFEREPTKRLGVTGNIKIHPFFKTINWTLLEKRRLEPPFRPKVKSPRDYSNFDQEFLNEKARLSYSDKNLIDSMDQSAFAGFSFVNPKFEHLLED
Chain of ROCK2 (O75116 whole entry, species assumed): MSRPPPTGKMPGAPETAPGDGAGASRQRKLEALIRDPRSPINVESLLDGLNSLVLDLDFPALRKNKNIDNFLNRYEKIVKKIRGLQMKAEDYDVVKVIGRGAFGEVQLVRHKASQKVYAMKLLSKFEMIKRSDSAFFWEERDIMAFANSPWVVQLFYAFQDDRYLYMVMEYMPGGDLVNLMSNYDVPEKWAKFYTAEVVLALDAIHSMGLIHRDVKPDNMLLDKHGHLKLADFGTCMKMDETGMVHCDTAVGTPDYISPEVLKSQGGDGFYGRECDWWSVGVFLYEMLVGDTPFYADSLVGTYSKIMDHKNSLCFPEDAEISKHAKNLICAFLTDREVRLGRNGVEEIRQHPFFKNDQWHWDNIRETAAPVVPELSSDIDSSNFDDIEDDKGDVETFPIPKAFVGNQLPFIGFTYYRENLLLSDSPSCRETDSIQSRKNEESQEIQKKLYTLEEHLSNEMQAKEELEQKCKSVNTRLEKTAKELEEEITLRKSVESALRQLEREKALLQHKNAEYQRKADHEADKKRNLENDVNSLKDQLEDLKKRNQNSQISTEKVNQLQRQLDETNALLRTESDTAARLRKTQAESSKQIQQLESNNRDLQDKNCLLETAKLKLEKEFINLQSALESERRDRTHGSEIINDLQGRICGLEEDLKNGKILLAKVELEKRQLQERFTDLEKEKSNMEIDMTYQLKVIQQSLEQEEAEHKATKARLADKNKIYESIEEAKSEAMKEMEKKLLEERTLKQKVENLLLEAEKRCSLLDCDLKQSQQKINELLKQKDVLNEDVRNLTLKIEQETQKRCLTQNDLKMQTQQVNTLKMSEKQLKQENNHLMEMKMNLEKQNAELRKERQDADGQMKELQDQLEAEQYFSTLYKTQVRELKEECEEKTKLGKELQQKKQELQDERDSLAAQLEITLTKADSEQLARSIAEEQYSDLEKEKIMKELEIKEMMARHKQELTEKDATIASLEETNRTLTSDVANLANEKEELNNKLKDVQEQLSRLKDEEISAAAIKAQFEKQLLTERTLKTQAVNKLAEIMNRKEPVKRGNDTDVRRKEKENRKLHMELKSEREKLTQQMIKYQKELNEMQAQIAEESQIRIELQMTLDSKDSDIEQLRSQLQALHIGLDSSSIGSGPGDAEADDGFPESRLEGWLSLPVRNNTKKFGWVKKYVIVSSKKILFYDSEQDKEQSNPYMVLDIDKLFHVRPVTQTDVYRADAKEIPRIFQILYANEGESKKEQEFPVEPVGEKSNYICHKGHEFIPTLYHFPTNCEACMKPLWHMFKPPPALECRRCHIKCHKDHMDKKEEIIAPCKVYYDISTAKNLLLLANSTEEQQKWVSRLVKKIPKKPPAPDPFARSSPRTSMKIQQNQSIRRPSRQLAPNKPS
Chain of ROCK1 (Q13464 whole entry, species assumed): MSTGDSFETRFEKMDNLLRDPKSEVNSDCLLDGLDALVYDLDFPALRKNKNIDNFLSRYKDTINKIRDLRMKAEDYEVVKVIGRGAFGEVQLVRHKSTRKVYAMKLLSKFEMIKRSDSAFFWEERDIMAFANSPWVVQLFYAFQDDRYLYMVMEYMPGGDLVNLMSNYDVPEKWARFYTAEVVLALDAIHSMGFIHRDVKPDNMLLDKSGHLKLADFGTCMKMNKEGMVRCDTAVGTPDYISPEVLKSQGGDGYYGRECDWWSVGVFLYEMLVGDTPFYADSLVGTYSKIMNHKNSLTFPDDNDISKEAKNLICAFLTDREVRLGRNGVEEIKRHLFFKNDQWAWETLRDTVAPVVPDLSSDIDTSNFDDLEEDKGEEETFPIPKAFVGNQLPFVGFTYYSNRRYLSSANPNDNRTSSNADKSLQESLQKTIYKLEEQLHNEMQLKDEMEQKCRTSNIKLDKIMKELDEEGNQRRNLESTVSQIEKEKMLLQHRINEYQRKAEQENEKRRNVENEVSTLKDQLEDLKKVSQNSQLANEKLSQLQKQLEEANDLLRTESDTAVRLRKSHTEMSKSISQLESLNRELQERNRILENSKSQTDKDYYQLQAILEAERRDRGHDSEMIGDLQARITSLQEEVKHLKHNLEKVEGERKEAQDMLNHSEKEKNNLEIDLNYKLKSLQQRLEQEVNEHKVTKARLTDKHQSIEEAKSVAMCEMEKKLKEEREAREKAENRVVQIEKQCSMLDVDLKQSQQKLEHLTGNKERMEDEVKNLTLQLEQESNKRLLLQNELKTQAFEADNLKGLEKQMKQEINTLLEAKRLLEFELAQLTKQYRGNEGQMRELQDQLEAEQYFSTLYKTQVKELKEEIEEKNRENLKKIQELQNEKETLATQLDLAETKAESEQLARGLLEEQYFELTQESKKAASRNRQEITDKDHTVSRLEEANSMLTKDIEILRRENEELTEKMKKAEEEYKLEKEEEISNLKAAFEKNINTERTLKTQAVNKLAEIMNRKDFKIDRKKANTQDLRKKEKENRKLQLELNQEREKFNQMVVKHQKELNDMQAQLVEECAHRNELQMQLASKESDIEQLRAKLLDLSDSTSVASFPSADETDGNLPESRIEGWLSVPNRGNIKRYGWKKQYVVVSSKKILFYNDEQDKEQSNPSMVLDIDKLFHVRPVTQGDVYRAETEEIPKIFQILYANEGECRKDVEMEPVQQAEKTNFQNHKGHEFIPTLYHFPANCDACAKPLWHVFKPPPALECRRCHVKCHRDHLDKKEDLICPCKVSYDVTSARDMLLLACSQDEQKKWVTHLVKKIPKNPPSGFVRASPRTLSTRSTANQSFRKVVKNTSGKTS

In the case of `C[C@@H]1C[C@H]2[C@@H]3CCC4=CC(=O)C=C[C@]4(C)[C@@]3(F)[C@@H](O)C[C@]2(C)[C@@]1(O)C(=O)COC(=O)c1cccc([C@@H]2C[C@H]2C(=O)Nc2ccc3cnccc3c2F)c1` [Example 91], the negative logarithm of the IC50 (pIC50) in [1] is 6.99.
In [1] (Mus musculus), `C[C@@H]1C[C@H]2[C@@H]3CCC4=CC(=O)C=C[C@]4(C)[C@@]3(F)[C@@H](O)C[C@]2(C)[C@@]1(O)C(=O)COC(=O)c1cccc([C@@H]2C[C@H]2C(=O)Nc2ccc3cnccc3c2)c1` [Example 90, 2-((8S,9R,10S,11S,13S,14S,16R,17R)-9-fluoro-11,17-dihydroxy-10,13,16-trimethyl-3-oxo-6,7,8,9,10,11,12,13,14,15,16,17-dodecahydro-3H-cyclopenta[a]phenanthren-17-yl)-2-oxoethyl 3-((1R,2R)-2-(isoquinolin-6-ylcarbamoyl)cyclopropyl)benzoate] had a negative-log IC50 (pIC50) of 6.52.
As for `C[C@@H]1C[C@H]2[C@@H]3CCC4=CC(=O)C=C[C@]4(C)[C@@]3(F)[C@@H](O)C[C@]2(C)[C@@]1(O)C(=O)COC(=O)CCC(=O)OCCc1ccc(C(CN)C(=O)Nc2ccc3cnccc3c2)cc1` (stereo partly shown) [Example 26], the pIC50 in data set [1] (Mus musculus) is 6.64.
Same read-out and setting: then `C[C@@H]1C[C@H]2[C@@H]3CCC4=CC(=O)C=C[C@]4(C)[C@@]3(F)[C@@H](O)C[C@]2(C)[C@@]1(O)C(=O)COC(=O)C1CC1C(=O)OCCc1ccc(C(CN)C(=O)Nc2ccc3cnccc3c2)cc1` (stereo partly shown) [Example 37], with 5.51.
`C[C@@H]1C[C@H]2[C@@H]3CCC4=CC(=O)C=C[C@]4(C)[C@@]3(F)[C@@H](O)C[C@]2(C)[C@@]1(O)C(=O)COC(=O)c1ccc(C(=O)OCc2ccc([C@@H](CN)C(=O)Nc3ccc4cnccc4c3)cc2)cc1` [Example 66, 4-((S)-3-amino-1-(isoquinolin-6-ylamino)-1-oxopropan-2-yl)benzyl (2-((8S,9R,10S,11S,13S,14S,16R,17R)-9-fluoro-11,17-dihydroxy-10,13,16-trimethyl-3-oxo-6,7,8,9,10,11,12,13,14,15,16,17-dodecahydro-3H-cyclopenta[a]phenanthren-17-yl)-2-oxoethyl) terephthalate dihydrochloride]: the negative logarithm of the IC50 (pIC50) on ROCK2 is 7.59; at ROCK1 it was 7.44; at PKA, 6.93; at JAK1, 4.30; at JAK2, 4.44; at JAK3, 4.36. Moreover, the pIC50 at TYK2 was 4.30; at IKKb, 4.30; at PKCh, 6.55; at PKCd it was 6.45; on PKCe, 5.44; on AKT1, 5.87. For the same compound, the negative-log IC50 (pIC50) in the data set on PTM was 6.45; in the data set on HTM it was 7.82; in “in vitro”, 4.00; in the data set with NFkB, 7.26.
For `CN(C)C(C(=O)Nc1ccc2cnccc2c1)c1ccc(COC(=O)CCC(=O)OCC(=O)[C@@]23OC(C)(C)O[C@@H]2C[C@H]2[C@@H]4C[C@H](F)C5=CC(=O)C=C[C@]5(C)[C@@]4(F)[C@@H](O)C[C@@]23C)cc1` (stereo partly shown) [Example 23], the pIC50 in [1] (Mus musculus) was 8.35.
On to `C[C@@H]1C[C@H]2[C@@H]3CCC4=CC(=O)C=C[C@]4(C)[C@@]3(F)[C@@H](O)C[C@]2(C)[C@@]1(O)C(=O)COC(=O)C1CC1C(=O)OCc1ccc([C@@H](CN)C(=O)Nc2ccc3cnccc3c2)cc1` (stereo partly shown) [Example 27], for which the negative-log IC50 (pIC50) on ROCK2 was 7.89; at ROCK1, 7.54; on PKA it was 6.50; on JAK1, 4.30; on JAK2, 4.38; on JAK3, 4.93. The pIC50 on TYK2 is 4.30; on IKKb, 4.33; on PKCh it was 6.48; at PKCd, 6.29; at PKCe, 5.46; on AKT1, 5.58. For the same compound, the pIC50 with PTM was 6.84; with HTM, 8.22; in the data set “in vitro”, 4.00; in the data set with NFkB, 5.75.
In the case of `C[C@@H]1C[C@H]2[C@@H]3CCC4=CC(=O)C=C[C@]4(C)[C@@]3(F)[C@@H](O)C[C@]2(C)[C@@]1(O)C(=O)COC(=O)CCC(=O)OCc1ccc(C(CCNC(=O)OC(C)(C)C)C(=O)Nc2ccc3cnccc3c2)cc1` (stereo partly shown) [Example 11], the pIC50 in data set [1] (Mus musculus) is 6.37.
In the case of `CN(C)C(C(=O)Nc1ccc2cnccc2c1)c1ccc(COC(=O)CCC(=O)OCC(=O)[C@@]2(O)CC[C@H]3[C@@H]4CCC5=CC(=O)C=C[C@]5(C)[C@H]4[C@@H](O)C[C@@]32C)cc1` (stereo partly shown) [Example 21], the pIC50 in data set [1] (Mus musculus) was 5.78.
In data set [1] (Mus musculus), `CN(C)C(C(=O)Nc1ccc2cnccc2c1)c1ccc(COC(=O)CCC(=O)OCC(=O)[C@@]23OC(C)(C)O[C@@H]2C[C@H]2[C@@H]4CCC5=CC(=O)C=C[C@]5(C)[C@@]4(F)[C@@H](O)C[C@@]23C)cc1` (stereo partly shown) [Example 28] had a pIC50 of 7.81.
`C[C@@H]1C[C@H]2[C@@H]3CCC4=CC(=O)C=C[C@]4(C)[C@@]3(F)[C@@H](O)C[C@]2(C)[C@@]1(O)C(=O)COC(=O)CCC(=O)OCc1ccc(C(CNC(=O)OC(C)(C)C)C(=O)Nc2ccc3cnccc3c2)cc1` (stereo partly drawn) [Example 4, 4-(3-((tert-butoxycarbonyl)amino)-1-(isoquinolin-6-ylamino)-1-oxopropan-2-yl)benzyl (2-((8S,9R,10S,11S,13S,14S,16R,17R)-9-fluoro-11,17-dihydroxy-10,13,16-trimethyl-3-oxo-6,7,8,9,10,11,12,13,14,15,16,17-dodecahydro-3H-cyclopenta[a]phenanthren-17-yl)-2-oxoethyl) succinate] had a pIC50 in data set [1] (Mus musculus) of 6.64.
For the compound `C[C@]12C=CC(=O)C=C1CC[C@@H]1[C@@H]2[C@@H](O)C[C@@]2(C)[C@H]1CC[C@]2(O)C(=O)COC(=O)C1CC1C(=O)OCc1ccc([C@@H](CN)C(=O)Nc2ccc3cnccc3c2)cc1` (stereo partly shown) [Example 19], the negative logarithm of the IC50 (pIC50) was 7.57 on ROCK2; 7.24 on ROCK1; 6.48 on PKA; 5.02 on JAK1; 5.59 at JAK3; 4.30 at TYK2. Besides, the pIC50 on IKKb is 4.30; on PKCh, 6.36; on PKCd, 6.23; on PKCe it was 5.38; on AKT1 it was 5.60; with PTM it was 6.15. Also, the negative logarithm of the IC50 (pIC50) with NFkB was 5.00.
In data set [1] (Mus musculus), `C[C@@H]1C[C@H]2[C@@H]3CCC4=CC(=O)C=C[C@]4(C)[C@@]3(F)[C@@H](O)C[C@]2(C)[C@@]1(O)C(=O)COC(=O)CCC(=O)OCc1ccc(C(C(=O)Nc2ccc3cnccc3c2)N(C)C)cc1` (stereo partly shown) [Example 20] showed a pIC50 of 6.84.
For the compound `CC(C)(C)OC(=O)NC[C@@H](C(=O)Nc1ccc2cnccc2c1)c1ccc(COC(=O)CCC(=O)OCC(=O)[C@@]2(O)CC[C@H]3[C@@H]4CCC5=CC(=O)C=C[C@]5(C)[C@H]4[C@@H](O)C[C@@]32C)cc1` [Example 14], the pIC50 in data set [1] (Mus musculus) was 6.21.
Compound `CC(C)(C)OC(=O)NC[C@@H](C(=O)Nc1ccc2cnccc2c1)c1ccc(COC(=O)CCC(=O)OCC(=O)[C@@]23OC(C)(C)O[C@@H]2C[C@H]2[C@@H]4CCC5=CC(=O)C=C[C@]5(C)[C@@]4(F)[C@@H](O)C[C@@]23C)cc1` [Example 29] had a pIC50 in [1] (Mus musculus) of 7.15.
`C[C@@H]1C[C@H]2[C@@H]3CCC4=CC(=O)C=C[C@]4(C)[C@@]3(F)[C@@H](O)C[C@]2(C)[C@@]1(O)C(=O)COC(=O)CCC(=O)OCc1ccc(C(CCN)C(=O)Nc2ccc3cnccc3c2)cc1` (stereo partly shown) [Example 12]: the negative logarithm of the IC50 (pIC50) in data set [1] (Mus musculus) was 7.04.
As to `CC(C)(C)OC(=O)NCC(C(=O)Nc1ccc2cnccc2c1)c1ccc(CCOC(=O)CCC(=O)OCC(=O)[C@@]23OC(C)(C)O[C@@H]2C[C@H]2[C@@H]4C[C@H](F)C5=CC(=O)C=C[C@]5(C)[C@@]4(F)[C@@H](O)C[C@@]23C)cc1` (stereo partly shown) [Example 31], the negative logarithm of the IC50 (pIC50) in [1] (Mus musculus) is 5.26.
`CC1(C)O[C@@H]2C[C@H]3[C@@H]4C[C@H](F)C5=CC(=O)C=C[C@]5(C)[C@@]4(F)[C@@H](O)C[C@]3(C)[C@]2(C(=O)COC(=O)CCC(=O)OCc2ccc([C@@H](CN)C(=O)Nc3ccc4cnccc4c3)cc2)O1` [Example 40]: the negative-log IC50 (pIC50) at ROCK2 was 7.89; on ROCK1 it was 7.72; at PKA it was 7.15; on JAK1, 4.30; on JAK3 it was 4.75; on TYK2 it was 4.30. The negative logarithm of the IC50 (pIC50) was 4.48 on IKKb; 6.72 on PKCh; 6.82 at PKCd; 6.61 at PKCe; 6.28 on AKT1; 6.66 with PTM. Besides, the pIC50 was 7.96 in the data set with HTM and 7.55 in the data set on NFkB.

Broadly, the pIC50 is −log10 of the IC50, conventionally taken in molar units.
